In brackets after ≈: the same amount, converted by molar mass.
Key:
MT4 [1] = experiment: Concentration required for protection of MT-4 cells from HIV-1 (IIIB) induced cytopathogenicity in MTT assay; assay type: functional, cell-based; conditions: Homo sapiens
MT4 [2] = experiment: Concentration required for protection of MT-4 cells from HIV-2 (ROD) induced cytopathogenicity in MTT assay; assay type: functional, cell-based; conditions: Homo sapiens
MT4 [3] = experiment: Selectivity index towards HIV-1 (IIIB) in MT-4 cells; assay type: functional, Homo sapiens
MT4 [4] = experiment: Selectivity index towards HIV-2 (ROD) in MT-4 cells; assay type: functional, Homo sapiens
MT4 [5] = experiment: Concentration of compound that reduces the viability of mock-infected MT-4 cells by 50%; assay type: functional; conditions: Homo sapiens
MT4 [6] = experiment: Maximum protection (%) of MT-4 cells from HIV-1 (IIIB) induced cytopathogenicity; value ranges from 25-30%; assay type: functional, Homo sapiens
MT4 [7] = experiment: Maximum protection (%) of MT-4 cells from HIV-2 (ROD) induced cytopathogenicity; value ranges from 51-81%; assay type: functional, Homo sapiens
MT4 [8] = experiment: Maximum protection (%) of MT-4 cells from HIV-2 (ROD) induced cytopathogenicity; value ranges from 51-55%; assay type: functional, Homo sapiens
[9] = Concentration of compound that reduces the viability of mock-infected peripheral blood mononuclear cells by 50%; assay type: functional; conditions: Homo sapiens
[10] = Selectivity index towards HIV-1 (IIIB) in peripheral blood mononuclear cells; assay type: functional, Homo sapiens
CCRF-CEM [11] = experiment: Concentration of compound required for protection of CEM cells from HIV-2 (ROD) induced cytopathogenicity; assay type: functional, cell-based; conditions: Homo sapiens
CCRF-CEM [12] = experiment: Concentration of compound that reduces the viability of mock-infected CEM cells by 50%; assay type: functional; conditions: Homo sapiens
MT4 [13] = experiment: Maximum protection (%) of MT-4 cells from HIV-1 (IIIB) induced cytopathogenicity; value ranges from 60-91%; assay type: functional, Homo sapiens
CCRF-CEM [14] = experiment: Selectivity index towards HIV-2 (ROD) in CEM cells; assay type: functional, Homo sapiens
CCRF-CEM [15] = experiment: Selectivity index towards HIV-1 (IIIB) in CEM cells; assay type: functional, Homo sapiens
[16] = Concentration of compound required for reduction of p24 production in HIV-1 (IIIB) infected peripheral blood mononuclear cells; assay type: functional; conditions: Homo sapiens
CCRF-CEM [17] = experiment: Concentration of compound required for protection of CEM cells from HIV-1 (IIIB) induced cytopathogenicity; assay type: functional, cell-based; conditions: Homo sapiens
MT4 [18] = experiment: Maximum protection (%) of MT-4 cells from HIV-1 (IIIB) induced cytopathogenicity; value ranges from 7-30%; assay type: functional, Homo sapiens
MT4 [19] = experiment: Maximum protection (%) of MT-4 cells from HIV-2 (ROD) induced cytopathogenicity; value ranges from 17-31%; assay type: functional, Homo sapiens
MT4 [20] = experiment: Maximum protection (%) of MT-4 cells from HIV-2 (ROD) induced cytopathogenicity; value ranges from 15-21%; assay type: functional, Homo sapiens
MT4 [21] = experiment: Maximum protection (%) of MT-4 cells from HIV-1 (IIIB) induced cytopathogenicity; value ranges from 65-86%; assay type: functional, Homo sapiens
MT4 [22] = experiment: Maximum protection (%) of MT-4 cells from HIV-2 (ROD) induced cytopathogenicity; assay type: functional, Homo sapiens
MT4 [23] = experiment: Maximum protection (%) of MT-4 cells from HIV-1 (IIIB) induced cytopathogenicity; value ranges from 5-9%; assay type: functional, Homo sapiens
MT4 [24] = experiment: Maximum protection (%) of MT-4 cells from HIV-1 (IIIB) induced cytopathogenicity; value ranges from 16-21%; assay type: functional, Homo sapiens
MT4 [25] = experiment: Maximum protection (%) of MT-4 cells from HIV-2 (ROD) induced cytopathogenicity; value ranges from 17-27%; assay type: functional, Homo sapiens
MT4 [26] = experiment: Maximum protection (%) of MT-4 cells from HIV-1 (IIIB) induced cytopathogenicity; value ranges from 2-18%; assay type: functional, Homo sapiens
MT4 [27] = experiment: Maximum protection (%) of MT-4 cells from HIV-1 (IIIB) induced cytopathogenicity; value ranges from 9-24%; assay type: functional, Homo sapiens
MT4 [28] = experiment: Maximum protection (%) of MT-4 cells from HIV-1 (IIIB) induced cytopathogenicity; value ranges from 11-24%; assay type: functional, Homo sapiens
MT4 [29] = experiment: Maximum protection (%) of MT-4 cells from HIV-2 (ROD) induced cytopathogenicity; value ranges from 26-27%; assay type: functional, Homo sapiens
MT4 [30] = experiment: Maximum protection (%) of MT-4 cells from HIV-2 (ROD) induced cytopathogenicity; value ranges from 58-83%; assay type: functional, Homo sapiens
MT4 [31] = experiment: Maximum protection (%) of MT-4 cells from HIV-1 (IIIB) induced cytopathogenicity; value ranges from 55-118%; assay type: functional, Homo sapiens

Cn1cc(C(=O)O)c(=O)c2cc(N)c(N3CCN(c4nc5ccccc5s4)CC3)cc21
EC50 (MT4 [1]): > 0.0054 µg/mL | EC50 (MT4 [2]): 0.0011 µg/mL (≈ 0.00253 µM) | Selectivity index (MT4 [3]): <1 | Selectivity index (MT4 [4]): 5.1 | CC50 (MT4 [5]): 0.0054 µg/mL (≈ 0.0124 µM) | Protection (MT4 [6]): <30% | Protection (MT4 [7]): <81%

Cn1cc(C(=O)O)c(=O)c2cc(N)c(N3CCN(c4cnccn4)CC3)cc21
Protection (MT4 [8]): <55% | CC50 [9]: 3.65 µg/mL (≈ 9.59 µM) | EC50 (MT4 [1]): 0.7 µg/mL (≈ 1.84 µM) | Selectivity index [10]: 81 | EC50 (MT4 [2]): 1.54 µg/mL (≈ 4.05 µM) | Selectivity index (MT4 [3]): 5.7 | Selectivity index (MT4 [4]): 2.6 | CC50 (MT4 [5]): 3.98 µg/mL (≈ 10.5 µM) | EC50 (CCRF-CEM [11]): 0.2 µg/mL (≈ 0.526 µM) | CC50 (CCRF-CEM [12]): > 100 µg/mL | Protection (MT4 [13]): <91% | Selectivity index (CCRF-CEM [14]): >500 | Selectivity index (CCRF-CEM [15]): >1250 | EC50 [16]: 0.04 µg/mL (≈ 0.105 µM) | EC50 (CCRF-CEM [17]): 0.08 µg/mL (≈ 0.21 µM)

Cn1cc(C(=O)O)c(=O)c2cc(N)c(N3CCN(c4ccccc4F)CC3)cc21
EC50 (MT4 [1]): > 125 µg/mL | EC50 (MT4 [2]): > 125 µg/mL | Protection (MT4 [18]): <30% | Protection (MT4 [19]): <31% | CC50 (MT4 [5]): > 125 µg/mL

Cn1cc(C(=O)O)c(=O)c2cc(N)c(N3CCN(c4nc5ccccc5o4)CC3)cc21
CC50 [9]: 1.12 µg/mL (≈ 2.67 µM) | EC50 (MT4 [1]): 0.01 µg/mL (≈ 0.0238 µM) | Protection (MT4 [20]): <21% | Selectivity index [10]: 26 | EC50 (MT4 [2]): 0.0087 µg/mL (≈ 0.0207 µM) | Selectivity index (MT4 [3]): 6.5 | Selectivity index (MT4 [4]): 11.3 | CC50 (MT4 [5]): 0.09 µg/mL (≈ 0.215 µM) | EC50 (CCRF-CEM [11]): 0.02 µg/mL (≈ 0.0477 µM) | CC50 (CCRF-CEM [12]): 2.2 µg/mL (≈ 5.25 µM) | Selectivity index (CCRF-CEM [14]): 110 | Protection (MT4 [21]): <86% | Selectivity index (CCRF-CEM [15]): 220 | EC50 [16]: 0.04 µg/mL (≈ 0.0954 µM) | EC50 (CCRF-CEM [17]): 0.01 µg/mL (≈ 0.0238 µM)

CC(=O)c1ccc(N2CCN(c3cc4c(cc3N)c(=O)c(C(=O)O)cn4C)CC2)cc1
EC50 (MT4 [1]): > 0.15 µg/mL | Protection (MT4 [22]): 13% | EC50 (MT4 [2]): > 0.15 µg/mL | Selectivity index (MT4 [3]): <1 | Selectivity index (MT4 [4]): <1 | CC50 (MT4 [5]): 0.15 µg/mL (≈ 0.357 µM) | Protection (MT4 [23]): <9%

COc1ccccc1N1CCN(c2cc3c(cc2N)c(=O)c(C(=O)O)cn3C)CC1
EC50 (MT4 [1]): > 7.45 µg/mL | EC50 (MT4 [2]): > 7.45 µg/mL | Selectivity index (MT4 [3]): <1 | Selectivity index (MT4 [4]): <1 | CC50 (MT4 [5]): 7.45 µg/mL (≈ 18.2 µM) | Protection (MT4 [24]): <21% | Protection (MT4 [25]): <27%

Nc1cc2c(=O)c(C(=O)O)cn(N3CCN(c4ccccn4)CC3)c2cc1N1CCN(c2nc3ccccc3s2)CC1
EC50 (MT4 [1]): > 0.24 µg/mL | Protection (MT4 [22]): 0% | EC50 (MT4 [2]): > 0.24 µg/mL | Selectivity index (MT4 [3]): <1 | Selectivity index (MT4 [4]): <1 | CC50 (MT4 [5]): 0.24 µg/mL (≈ 0.412 µM) | Protection (MT4 [26]): <18%

COc1ccccc1N1CCN(c2cc3c(cc2N)c(=O)c(C(=O)O)cn3C2CC2)CC1
EC50 (MT4 [1]): > 10.3 µg/mL | Protection (MT4 [22]): 10% | Protection (MT4 [27]): <24% | EC50 (MT4 [2]): > 10.3 µg/mL | Selectivity index (MT4 [3]): <1 | Selectivity index (MT4 [4]): <1 | CC50 (MT4 [5]): 10.3 µg/mL (≈ 23.8 µM)

CCn1cc(C(=O)O)c(=O)c2cc(N)c(N3CCN(c4ccccn4)CC3)cc21
EC50 (MT4 [1]): > 2.2 µg/mL | EC50 (MT4 [2]): > 2.2 µg/mL | Selectivity index (MT4 [3]): <1 | Selectivity index (MT4 [4]): <1 | CC50 (MT4 [5]): 2.2 µg/mL (≈ 5.59 µM) | Protection (MT4 [28]): <24% | Protection (MT4 [29]): <27%

Cn1cc(C(=O)O)c(=O)c2cc(N)c(N3CCN(c4nccs4)CC3)cc21
CC50 [9]: 1.3 µg/mL (≈ 3.37 µM) | EC50 (MT4 [1]): 0.13 µg/mL (≈ 0.337 µM) | Selectivity index [10]: 41 | EC50 (MT4 [2]): 0.08 µg/mL (≈ 0.208 µM) | Selectivity index (MT4 [3]): 9 | Protection (MT4 [30]): <83% | Selectivity index (MT4 [4]): 14.6 | CC50 (MT4 [5]): 1.17 µg/mL (≈ 3.04 µM) | Protection (MT4 [31]): <118% | EC50 (CCRF-CEM [11]): 0.08 µg/mL (≈ 0.208 µM) | CC50 (CCRF-CEM [12]): ≥ 100 µg/mL | Selectivity index (CCRF-CEM [14]): >=1250 | Selectivity index (CCRF-CEM [15]): >=1667 | EC50 [16]: 0.03 µg/mL (≈ 0.0778 µM) | EC50 (CCRF-CEM [17]): 0.06 µg/mL (≈ 0.156 µM)
